Data on one molecule can be found in US20040248871A1, “Use of lysyl oxidase inhibitors for cell culture and tissue engineering” (priority 2001, published 2004).

Where “and” joins values, the source holds several entries; their conditions need not be identical. Identical values can stand only once.

In test [1] the test system is chondrocytes from the sternum of chicken embryos. Briefly: Dedifferentiation of chicken embryo chondrocytes in two-dimensional culture on plastic (fluorography of 14C-proline labelled collagens, morphology). In kind it is cell-based. From the text: a) The experimental chondrocyte culture model is the one with the culture of chicken embryo chondrocytes on plastic in two dimensions. The embryonic state of the cells allows a high level of synthesis of the collagens, unlike the adult chondrocytes. The chicken sternum from which the chondrocytes originates Makes it possible to obtain two pure sub-populations of chondrocytes capable or not capable of subsequently hypertrophying (respectively, the chondrocytes of the cranial or caudal section of the sternum). […] The results which are described always distinguish the sub-population of the chondrocytes studied.
The cultures with 4 mM L-glutamine antibiotics, and 25 μg/ml ascorbate (factor necessary for the stability of the secreted collagen triple helix units) are continued for 2 weeks in the presence or absence of 10% serum, optionally replaced by 100 ng/ml insulin, and by 50 μg/ml βAPN. The absence of serum necessitates the addition of protective agents (1 mM cysteine and 1 mM pyruvate). A day before taking the samples, 10 μCi of 14C Proline is added to the cultures the lawns or media of which are then pepsinated (0.2 mg pepsin/ml/pH 4/24 hours) and subjected to electrophoretic (SDS PAGE gradient of 4.5 at 15% acrylamide) then fluorographic analysis. The fluorographs then reveal the only pepsin-resistant protein bands, essentially the collagens and lipocalines (proteins with lipid transport). The known position of these bands allows the indication of the dedifferentiation of the cells by the appearance of the α2 I chain of collagen I associated with the lowering of the synthesis of the collagens of cartilage type.
βAPN (50 μg/ml) is added immediately upon inoculation, to the culture medium which is renewed every 2 days and applied to the cultures of chondrocytes as well as to those of fibroblasts then of keratinocytes during the formation of the reconstructed skin. […]

The subject of test [2] is reconstructed skin (fibroblasts and keratinocytes). Briefly: Retraction (surface area) of reconstructed skins. The class given is cell-based, human. Particulars: for surface area compared to the initial original surface area: 35 days of culture. From the text:
The method allowing the formation of the reconstructed skin is that described in the French Patent 87-08252 of the 15th Jun. 1987.
The support of the reconstructed skin model is constituted by a dermal substrate (DS) with a base of collagen-glycosaminoglycan cross-linked by chitosan according to the technique published by Duplan-Perrat et al (J Invest Dermatol 2000 114:365). Fibroblasts are inoculated the inside of the DS in order to obtain an equivalent dermis. The reconstituted skin (RS) is obtained by inoculating the keratinocytes after 15 days (day 15) of culture in equivalent dermis. The dermal fibroblasts are obtained from explants of human prepuces after dermal-epidermal separation and cultured in monolayer in DMEM medium (Sigma) supplemented by 10% fœtal calf serum, 4 mM L-glutamine, EGF (Austral Biologic) at 10 ng/ml, penicillin at 100 UI/ml, gentamicin at 100 μg/ml and amphotericin B at 1 μg/ml. The keratinocytes are from a human skin biopsy sample after dermal-epidermal separation by trypsination. The cells are inoculated nutritive layers (irradiated fibroblasts) and cultured in DMEM and HAM F12 at 30% supplemented with fœetal calf serum at 10%, EGF at 10 ng/ml, hydrocortisone at 1.6 ng/ml, umulin at 0.12 UI/ml, choleratoxin at 0.1 nM, triiodothyronine at 0.2 μM, adenine at 24 μg/ml, 4 mM L-Glutamine, penicillin at 100 UI/ml, gentamicin at 100 μg/ml and amphotericin B at 1 μg/ml.
A mixture with a base of bovine collagen of type I and III (72%), glycosaminoglycan (8%) cross-linked by chitosan (20%) is poured into 6-well plates. The dermal substrates thus obtained are then frozen at −80° C. and lyophilized. The fibroblasts are inoculated in the dermal substrate, rehydrated and sterilized at a rate of 250,000 cells per cm^2. Keratinocytes are inoculated after 15 days (day 15) at a density of 200,000 to 250,000 cells/cm^2. The reconstructed skins are cultured for 8 days in immersion, in the medium described previously supplemented with 50 μg/ml of vitamin C. Then the reconstructed skins are raised to the air-liquid interface using a simplified culture medium with a DMEM base, supplemented with fœtal calf serum, EGF, hydrocortisone, umulin, L-glutamine, penicillin, gentamicin, and amphotericin B, and ascorbic acid, at the concentrations described above. The reconstructed skins are cultured up to day 60. Samples are taken at day 30 and day 60 for the different analyses.
βAPN (50 μg/ml) is added immediately upon inoculation, to the culture medium which is renewed every 2 days and applied to the cultures of chondrocytes as well as to those of fibroblasts then of keratinocytes during the formation of the reconstructed skin.

Test [3] deals with standard purified aortic LO. Briefly: Lysyl oxidase activity assay with tritiated elastin substrate on standard purified aortic LO. In kind it is biochemical. Particulars: Experiment 2, substrate no. 2, standard purified aortic LO. On the procedure:
The Lysyl oxidase activity was assayed with 300,000 dpm of labelled elastin on the Lysine, substrate of the enzyme (Shackelton and Hulmes Anal. Biochem. (1990) 185: 359-362). The determination of the presence of Lysyl oxidases in the cultures of chondrocytes is carried out according to the standard methods of immunodecoration of the supports onto which the bands separated from the proteins extracted from the corresponding culture media or from the cell lawns have been transferred.

As to `N#CCCN` [βAPN, β-aminopropionitrile], in test [1] (50 μg/ml, after 2 weeks of culture), the “effectiveness against dedifferentiation of the chondrocytes” value is given as “total”. The “biochemical dedifferentiation of the chondrocytes (collagen I secreted, stopping of the synthesis of collagen X)” value in test [1] (50 μg/ml, cranial chondrocytes, in the presence of serum, 2 weeks, 2D on plastic) is on record as “totally inhibited”. Also, the “expression of collagen X by the hypertrophic (cranial) chondrocytes” value in test [1] (after 3 days of culture, in the presence of serum, media and cell lawns) is reported as “allows the normal expression of collagen X”. Moreover, the “surface area compared to the initial original surface area” value in test [2] (50 μg/ml) is 50%; in test [2] (200 μg/ml), 40%; in test [2] (500 μg/ml) it was 40%. In addition, the “surface area compared to the non-treated control” value in test [2] (50 μg/ml, after two weeks at the air-liquid interface) is given as “do not show any significant difference”. The “reduction in surface area compared to original state” value in test [2] (500 μg/ml, immersed, before raising to the air-liquid interface) turned out to be 17%. In addition, the “surface area compared to that of the control” value in test [2] (200 or 500 μg/ml, after two weeks at the air-liquid interface) is recorded as “significantly greater surface area”. Moreover, the “retraction compared to the control” value in test [2] (skins still in immersed culture) is given as “significant dose-dependent reduction”. In addition, in test [3], the “dpm + βAPN (Lysyl oxidase activity assay)” value was 4340 dpm and 4762 dpm.
